Measurements taken from ChEMBL document CHEMBL3763124, “N-Benzylbenzamides: A Novel Merged Scaffold for Orally Available Dual Soluble Epoxide Hydrolase/Peroxisome Proliferator-Activated Receptor γ Modulators” (J Med Chem, 2016).
In brackets after ≈: the same amount, converted by molar mass. Activity calls are given as the source filed them. The calls are words filed in the database; no cut-off is given here.

Legend:
[1] = system: Mus musculus; experiment: Upregulation of PPARgamma gene expression in C57BL/6JRj mouse liver at 30 mg/kg/day, po administered with drinking water measured after 2 weeks by qPCR method; format: functional, organism-based
[2] = system: Mus musculus; experiment: In vivo transactivation of PPARgamma in C57BL/6JRj mouse assessed as increase in LXRalpha expression in liver at 30 mg/kg/day, po administered with drinking water measured after 2 weeks by qPCR method; format: functional, organism-based
[3] = biological target: T1, Peroxisome proliferator-activated receptor alpha (Homo sapiens) (UniProt Q07869); experiment: Transactivation of human PPARalpha expressed in African green monkey COS7 cells at 10 uM incubated overnight by dual-glo luciferase reporter assay; format: cell-based; settings: COS-7
T1 sequence (whole entry): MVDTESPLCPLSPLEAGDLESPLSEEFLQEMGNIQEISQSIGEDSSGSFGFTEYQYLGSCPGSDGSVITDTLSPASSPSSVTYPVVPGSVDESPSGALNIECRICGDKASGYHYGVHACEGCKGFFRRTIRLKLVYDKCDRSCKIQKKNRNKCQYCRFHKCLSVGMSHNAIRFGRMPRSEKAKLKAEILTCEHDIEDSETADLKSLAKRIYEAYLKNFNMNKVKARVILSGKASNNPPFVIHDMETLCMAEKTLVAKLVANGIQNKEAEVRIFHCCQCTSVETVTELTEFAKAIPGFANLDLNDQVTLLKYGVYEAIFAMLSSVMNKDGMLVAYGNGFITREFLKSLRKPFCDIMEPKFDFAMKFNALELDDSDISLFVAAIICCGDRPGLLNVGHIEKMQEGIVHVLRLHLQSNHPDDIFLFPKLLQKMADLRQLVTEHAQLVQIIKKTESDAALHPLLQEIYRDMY

[4] = Solubility of the compound in water by microplate reader analysis; format: physicochemical
[5] = system: Mus musculus; experiment: Upregulation of PPARalpha gene expression in C57BL/6JRj mouse liver at 30 mg/kg/day, po administered with drinking water after 2 weeks by qPCR method; format: functional, organism-based
[6] = system: Mus musculus; experiment: In vivo transactivation of PPARgamma in C57BL/6JRj mouse assessed as increase in PGC-1alpha expression in liver at 30 mg/kg/day, po administered with drinking water measured after 2 weeks by qPCR method; format: functional, organism-based
[7] = system: Mus musculus; experiment: In vivo transactivation of PPARgamma in C57BL/6JRj mouse assessed as increase in sEH expression in liver at 30 mg/kg/day, po administered with drinking water after 2 weeks by qPCR method; format: functional, organism-based
[8] = biological target: Free fatty acid receptor 1 (Mus musculus) (UniProt Q76JU9); experiment: Partial agonist activity at mouse free fatty acid receptor 1 expressed in HEK293 cells assessed as inositol phosphate 1 accumulation incubated for 30 mins; format: functional, cell-based
Chain of Free fatty acid receptor 1 (Mus musculus) (Q76JU9 whole entry): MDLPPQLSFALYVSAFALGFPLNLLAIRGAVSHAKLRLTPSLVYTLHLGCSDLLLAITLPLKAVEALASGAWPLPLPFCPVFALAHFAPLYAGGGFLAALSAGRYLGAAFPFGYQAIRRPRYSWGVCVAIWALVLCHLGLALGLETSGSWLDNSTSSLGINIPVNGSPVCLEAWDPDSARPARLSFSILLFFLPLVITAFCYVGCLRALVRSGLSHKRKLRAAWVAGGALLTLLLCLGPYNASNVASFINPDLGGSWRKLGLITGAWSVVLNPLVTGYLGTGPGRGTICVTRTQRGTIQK

[9] = Apparent oral clearance in RjOrl:Swiss (CD-1) mouse plasma at 30 mg/kg; format: ADME, organism-based
[10] = Apparent volume of distribution during terminal phase in RjOrl:Swiss (CD-1) mouse plasma at 30 mg/kg, po; format: ADME, organism-based; settings: read-out: Vz/F
[11] = Cmax in RjOrl:Swiss (CD-1) mouse plasma at 30 mg/kg, po; format: ADME, organism-based; design: dose 30 mg/kg, route oral
[12] = AUC (0 to infinity) in RjOrl:Swiss (CD-1) mouse plasma at 30 mg/kg, po; format: ADME, organism-based; design: dose 30 mg/kg, time infinity, route oral
[13] = system: Mus musculus; experiment: Upregulation of LXRalpha regulated ApoE expression in C57BL/6JRj mouse liver at 30 mg/kg/day, po administered with drinking water measured after 2 weeks by qPCR method; format: functional, organism-based
[14] = system: HepG2; experiment: Cytotoxicity against human HepG2 cells assessed as cell viability up to 30 uM after 48 hrs by WST-1 assay; format: cell-based; settings: hepg2, 48 h
[15] = Drug level in supernatant of African green monkey COS7 cells treated with Ethyl 2-Ethyl 3-[4-(N-(4-methoxy(2-trifluoromethyl)benzyl)-benzamide)]propanoate at 10 uM after 12 hrs by HPLC analysis; format: ADME, cell-based; settings: chlorocebus aethiops, cos-7, 12 h
[16] = biological target: T2, Peroxisome proliferator-activated receptor delta (Homo sapiens, UniProt Q03181); experiment: Transactivation of human PPARdelta expressed in African green monkey COS7 cells incubated overnight by dual-glo luciferase reporter gene assay; format: cell-based; settings: cos-7
T2 sequence (Q03181 whole entry): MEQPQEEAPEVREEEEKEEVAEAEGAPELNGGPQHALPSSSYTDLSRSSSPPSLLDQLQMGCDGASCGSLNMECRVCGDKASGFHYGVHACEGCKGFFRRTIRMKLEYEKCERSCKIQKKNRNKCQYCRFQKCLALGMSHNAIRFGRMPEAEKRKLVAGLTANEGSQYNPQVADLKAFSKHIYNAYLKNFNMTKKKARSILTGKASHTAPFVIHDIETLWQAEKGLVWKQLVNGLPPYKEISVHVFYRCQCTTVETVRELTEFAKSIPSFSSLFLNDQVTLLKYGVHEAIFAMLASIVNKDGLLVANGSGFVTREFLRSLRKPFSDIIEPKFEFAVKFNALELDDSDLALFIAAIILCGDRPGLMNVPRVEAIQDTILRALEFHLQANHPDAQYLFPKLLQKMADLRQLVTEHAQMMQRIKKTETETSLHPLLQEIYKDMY

[17] = system: Mus musculus; experiment: In vivo transactivation of PPARgamma in C57BL/6JRj mouse assessed as increase in CD36 expression in liver at 30 mg/kg/day, po administered with drinking water measured after 2 weeks by qPCR method; format: functional, organism-based
[18] = biological target: Free fatty acid receptor 1 (Homo sapiens) (UniProt O14842); experiment: Partial agonist activity at human free fatty acid receptor 1 expressed in HEK293 cells assessed as inositol phosphate 1 accumulation incubated for 30 mins; format: functional, cell-based
Chain of Free fatty acid receptor 1 (Homo sapiens) (O14842 whole entry): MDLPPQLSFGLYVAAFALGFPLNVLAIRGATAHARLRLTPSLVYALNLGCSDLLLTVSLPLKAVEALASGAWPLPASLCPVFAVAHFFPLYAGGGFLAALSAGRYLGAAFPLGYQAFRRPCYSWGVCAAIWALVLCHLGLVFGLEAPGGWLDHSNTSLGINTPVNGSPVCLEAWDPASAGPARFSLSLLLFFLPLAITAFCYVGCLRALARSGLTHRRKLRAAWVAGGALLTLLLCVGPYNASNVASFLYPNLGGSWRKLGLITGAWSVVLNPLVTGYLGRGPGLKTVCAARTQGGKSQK

[19] = system: Mus musculus; experiment: Upregulation of LXRalpha regulated ABCA1 expression in C57BL/6JRj mouse liver at 30 mg/kg/day, po administered with drinking water measured after 2 weeks by qPCR method; format: functional, organism-based

CCC(Cc1ccc(C(=O)NCc2ccc(OC)cc2C(F)(F)F)cc1)C(=O)O (centres undefined)
Activity [1]: Active
Activity [2]: Active
Activity [3]: 29%
solubility [4]: 375 µM (≈ 154 µg/mL)
Activity [5]: Active
Activity [6]: Active
Activity [7]: Active
Activity [8]: Active
CL/F [9]: 5 mL/min/kg
Vd/F [10]: 2 L/kg
Cmax [11]: 29100 ng/mL
AUC(0-inf) [12]: 94400 ng·h/mL
Activity [13]: inactive
Activity [14]: Non-toxic
Drug metabolism [15]: metabolite_detected
EC50 [16]: Not Active
Activity [17]: Active
Activity [18]: Active
Activity [19]: inactive
